According to US9302999B2, “Substituted triazoles as herbicides” (E. I. DU PONT DE NEMOURS AND COMPANY, priority 2012, dated 2016):
Where two headings read alike, the source gives them in different places.

What was measured:
Format in all cases: in vivo
[1] = tested on: morningglory (Ipomoea coccinea); experiment: Test C pre-/postemergence: morningglory
Procedure, shortened: (§1)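 Visual injury scored 0–100 (100 = complete control) against untreated controls after 13–15 greenhouse days. Surfactant-containing solvent formulations applied either to soil after sowing (loam/sand) or over 1- to 4-leaf plants, 2–18 cm tall.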

[2] = tested on: corn (Zea mays); experiment: Test C pre-/postemergence: corn
Procedure, shortened: as §1

[3] = tested on: foxtail, giant (giant foxtail, Setaria faberii); experiment: Test C pre-/postemergence: foxtail, giant
Procedure, shortened: as §1

[4] = tested on: crabgrass, large (large crabgrass, Digitaria sanguinalis); experiment: Test A pre-/postemergence: crabgrass, large; conditions: Digitaria sanguinalis, 240 h; for pest or weed control at 125 g/ha: 125 g ai/ha; for pest or weed control at 500 g/ha: 500 g ai/ha
Procedure, shortened: (§2)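 Seeds were sown in loam/sand blend and sprayed preemergence (directed soil spray) and, simultaneously, postemergence at 2–10 cm, one- to two-leaf stage, using compounds in non-phytotoxic solvent with surfactant. After ~10 days in greenhouse, injury was rated visually versus untreated controls, 0 (no effect) to 100 (complete control).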

[5] = tested on: pigweed (Amaranthus retroflexus); experiment: Test A pre-/postemergence: pigweed; conditions: Amaranthus retroflexus, 240 h; for pest or weed control at 125 g/ha: 125 g ai/ha; for pest or weed control at 500 g/ha: 500 g ai/ha
Procedure, shortened: as §2

[6] = tested on: barnyardgrass (Echinochloa crus-galli); experiment: Test A pre-/postemergence: barnyardgrass; conditions: Echinochloa crus-galli, 240 h; for pest or weed control at 125 g/ha: 125 g ai/ha; for pest or weed control at 500 g/ha: 500 g ai/ha
Procedure, shortened: as §2

[7] = tested on: blackgrass (Alopecurus myosuroides); experiment: Test C pre-/postemergence: blackgrass
Procedure, shortened: as §1

[8] = tested on: large crabgrass (Digitaria sanguinalis); experiment: Test C pre-/postemergence: large crabgrass
Procedure, shortened: as §1

[9] = tested on: wheat (Triticum aestivum); experiment: Test A pre-/postemergence: wheat; conditions: Triticum aestivum, 240 h; for plant injury at 125 g/ha: 125 g ai/ha; for plant injury at 500 g/ha: 500 g ai/ha
Procedure, shortened: as §2

[10] = tested on: nutsedge, yellow (yellow nutsedge, Cyperus esculentus); experiment: Test C pre-/postemergence: nutsedge, yellow
Procedure, shortened: as §1

[11] = tested on: lambsquarters (Chenopodium album); experiment: Test C pre-/postemergence: lambsquarters
Procedure, shortened: as §1

[12] = Postemergence, 16 g ai/ha, scale 0 to 100, 0 no effect, 100 complete control
[13] = Postemergence, 31 g ai/ha, scale 0 to 100 (0 no effect, 100 complete control)
[14] = Postemergence, 62 g ai/ha, scale 0 to 100 (0 no effect, 100 complete control)
[15] = Postemergence, 125 g ai/ha, scale 0 to 100, 0 no effect, 100 complete control
[16] = Preemergence, 16 g ai/ha, scale 0 (no effect) to 100 (complete control)
[17] = Preemergence, 31 g ai/ha, scale of 0 to 100, 0 is no effect, 100 is complete control
[18] = Preemergence, 62 g ai/ha, scale of 0 to 100, 0 is no effect, 100 is complete control
[19] = Preemergence, 125 g ai/ha, scale 0 to 100, 0 no effect, 100 complete control
[20] = Preemergence, 62 g ai/ha, scale 0 to 100, 0 no effect, 100 complete control

SMILES: COc1nn(-c2ccc(C(F)(F)F)cc2)nc1Cc1ccnc(C(F)(F)F)c1 [Compound 15, 4-[[5-methoxy-2-[4-(trifluoromethyl)phenyl]-2H-1,2,3-triazol-4-yl]methyl]-2-(trifluoromethyl)pyridine]
- Plant response rating, Morningglory [1, 12]: 45
- Plant response rating, Morningglory [1, 13]: 75
- Plant response rating, Morningglory [1, 14]: 75
- Plant response rating, Morningglory [1, 15]: 90
- Plant response rating, Morningglory [1, 16]: 5
- Plant response rating, Morningglory [1, 17]: 5
- Plant response rating, Morningglory [1, 18]: 15
- Plant response rating, Morningglory [1, 19]: 45
- Plant response rating, Corn [2, 12]: 0
- Plant response rating, Corn [2, 13]: 5
- Plant response rating, Corn [2, 14]: 15
- Plant response rating, Corn [2, 15]: 35
- Plant response rating, Corn [2, 16]: 0
- Plant response rating, Corn [2, 17]: 0
- Plant response rating, Corn [2, 20]: 0
- Plant response rating, Corn [2, 19]: 10
- Plant response rating, Foxtail, Giant [3, 12]: 5
- Plant response rating, Foxtail, Giant [3, 13]: 10
- Plant response rating, Foxtail, Giant [3, 14]: 10
- Plant response rating, Foxtail, Giant [3, 15]: 75
- Plant response rating, Foxtail, Giant [3, 16]: 95
- Plant response rating, Foxtail, Giant [3, 17]: 95
- Plant response rating, Foxtail, Giant [3, 18]: 100
- Plant response rating, Foxtail, Giant [3, 19]: 100
- pest or weed control at 125 g/ha ([4]; post-emergence, Postemergence, 0 to 100 scale, 0 is no effect, 100 is complete control, read-out: Crabgrass, Large plant response rating): 90%
- pest or weed control at 500 g/ha ([4]; post-emergence, Postemergence, visual rating on 0 to 100 scale (0 no effect, 100 complete control), approximately ten days, read-out: Crabgrass, Large plant response rating): 90%
- pest or weed control at 125 g/ha ([4]; pre-emergence, Preemergence, 0 to 100 scale (0 no effect, 100 complete control), read-out: Plant response rating, Crabgrass, Large): 100%
- pest or weed control at 500 g/ha ([4]; pre-emergence, Preemergence, 0 to 100 scale, 0 is no effect, 100 is complete control, read-out: Plant response rating, Crabgrass, Large): 100%
- pest or weed control at 125 g/ha ([5]; post-emergence, Postemergence, 0 to 100 scale, 0 is no effect, 100 is complete control, read-out: Pigweed plant response rating): 100%
- pest or weed control at 500 g/ha ([5]; post-emergence, Postemergence, visual rating on 0 to 100 scale (0 no effect, 100 complete control), approximately ten days, read-out: Pigweed plant response rating): 100%
- pest or weed control at 125 g/ha ([5]; pre-emergence, Preemergence, 0 to 100 scale (0 no effect, 100 complete control), read-out: Plant response rating, Pigweed): 100%
- pest or weed control at 500 g/ha ([5]; pre-emergence, Preemergence, 0 to 100 scale, 0 is no effect, 100 is complete control, read-out: Plant response rating, Pigweed): 100%
- pest or weed control at 125 g/ha ([6]; post-emergence, Postemergence, 0 to 100 scale, 0 is no effect, 100 is complete control, read-out: Barnyardgrass plant response rating): 90%
- pest or weed control at 500 g/ha ([6]; post-emergence, Postemergence, visual rating on 0 to 100 scale (0 no effect, 100 complete control), approximately ten days, read-out: Barnyardgrass plant response rating): 90%
- pest or weed control at 125 g/ha ([6]; pre-emergence, Preemergence, 0 to 100 scale (0 no effect, 100 complete control), read-out: Plant response rating, Barnyardgrass): 100%
- pest or weed control at 500 g/ha ([6]; pre-emergence, Preemergence, 0 to 100 scale, 0 is no effect, 100 is complete control, read-out: Plant response rating, Barnyardgrass): 100%
- Plant response rating, Blackgrass [7, 12]: 20
- Plant response rating, Blackgrass [7, 13]: 30
- Plant response rating, Blackgrass [7, 14]: 60
- Plant response rating, Blackgrass [7, 15]: 80
- Plant response rating, Blackgrass [7, 16]: 15
- Plant response rating, Blackgrass [7, 17]: 50
- Plant response rating, Blackgrass [7, 20]: 85
- Plant response rating, Blackgrass [7, 19]: 95
- Plant response rating, Crabgrass, Large [8, 12]: 5
- Plant response rating, Crabgrass, Large [8, 13]: 15
- Plant response rating, Crabgrass, Large [8, 14]: 45
- Plant response rating, Crabgrass, Large [8, 15]: 60
- Plant response rating, Crabgrass, Large [8, 16]: 98
- Plant response rating, Crabgrass, Large [8, 17]: 100
- Plant response rating, Crabgrass, Large [8, 18]: 100
- Plant response rating, Crabgrass, Large [8, 19]: 100
- plant injury at 125 g/ha ([9]; post-emergence, Postemergence, 0 to 100 scale, 0 is no effect, 100 is complete control, read-out: Wheat plant response rating): 30%
- plant injury at 500 g/ha ([9]; post-emergence, Postemergence, visual rating on 0 to 100 scale (0 no effect, 100 complete control), approximately ten days, read-out: Wheat plant response rating): 50%
- plant injury at 125 g/ha ([9]; pre-emergence, Preemergence, 0 to 100 scale (0 no effect, 100 complete control), read-out: Plant response rating, Wheat): 30%
- plant injury at 500 g/ha ([9]; pre-emergence, Preemergence, 0 to 100 scale, 0 is no effect, 100 is complete control, read-out: Plant response rating, Wheat): 50%
- Plant response rating, Nutsedge, Yellow [10, 12]: 0
- Plant response rating, Nutsedge, Yellow [10, 13]: 0
- Plant response rating, Nutsedge, Yellow [10, 14]: 0
- Plant response rating, Nutsedge, Yellow [10, 15]: 0
- Plant response rating, Nutsedge, Yellow [10, 16]: 0
- Plant response rating, Nutsedge, Yellow [10, 17]: 0
- Plant response rating, Nutsedge, Yellow [10, 18]: 0
- Plant response rating, Nutsedge, Yellow [10, 19]: 10
- Plant response rating, Lambsquarters [11, 12]: 100
- Plant response rating, Lambsquarters [11, 13]: 100
- Plant response rating, Lambsquarters [11, 14]: 100
- Plant response rating, Lambsquarters [11, 15]: 100
- Plant response rating, Lambsquarters [11, 16]: 95
- Plant response rating, Lambsquarters [11, 17]: 100
- Plant response rating, Lambsquarters [11, 18]: 100
- Plant response rating, Lambsquarters [11, 19]: 100
